Experimental data as given in PMC6556873, “Rapid Covalent-Probe Discovery by Electrophile-Fragment Screening” (Journal of the American Chemical Society, 2019).
Where two headings read alike, the source gives them in different places.

How the values were obtained:
BSA = target: T1, BSA (Bos taurus, UniProt P02769); parameters: Intact protein LC/MS covalent labelling, fragments in pools of five, 200 uM each, 4 °C; conditions: 24 h, 4 °C, pool of five; 200 µM; covalent
T1 construct: gene ALB

NUDT7 = target: T2, NUDT7 (Homo sapiens, UniProt P0C024); parameters: Intact protein LC/MS covalent labelling, fragments in pools of five, 200 uM each, 4 °C; conditions: 24 h, 4 °C, pool of five; 200 µM; covalent
T2 construct: residues 14-235, E. coli, pNIC28-Bsa4, N-terminal His6 tag removed by TEV, construct 26672 Da
T2 sequence (P0C024 14-235): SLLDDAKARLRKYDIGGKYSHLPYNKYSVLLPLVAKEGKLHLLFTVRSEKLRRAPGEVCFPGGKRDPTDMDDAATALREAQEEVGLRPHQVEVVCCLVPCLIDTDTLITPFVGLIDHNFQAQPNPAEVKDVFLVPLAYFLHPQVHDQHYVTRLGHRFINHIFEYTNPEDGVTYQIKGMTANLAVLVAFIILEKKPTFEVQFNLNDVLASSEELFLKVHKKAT

OTUB2 (OTUB2A) = target: T3, OTUB2 (OTUB2A) (Homo sapiens, UniProt Q96DC9); parameters: Intact protein LC/MS covalent labelling, fragments in pools of five, 200 uM each, 4 °C; conditions: 24 h, 4 °C, pool of five; 200 µM; covalent
T3 construct: full length residues 1-234, E. coli BL21(DE3)-R3, His tag removed by TEV, construct 27312 Da
T3 sequence (Q96DC9 1-234): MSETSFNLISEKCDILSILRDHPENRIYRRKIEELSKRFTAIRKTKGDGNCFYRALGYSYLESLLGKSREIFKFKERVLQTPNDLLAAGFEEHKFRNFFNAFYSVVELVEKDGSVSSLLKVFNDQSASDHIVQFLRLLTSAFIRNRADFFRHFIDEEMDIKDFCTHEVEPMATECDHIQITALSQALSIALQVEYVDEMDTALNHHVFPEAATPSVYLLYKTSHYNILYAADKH

PCAF = target: T4, PCAF (Homo sapiens, UniProt Q92831); parameters: Intact protein LC/MS covalent labelling, fragments in pools of five, 200 uM each, 4 °C; conditions: 24 h, 4 °C, pool of five; 200 µM; covalent
T4 construct: gene KAT2B
T4 sequence (Q92831 whole entry, the tested form may be a part): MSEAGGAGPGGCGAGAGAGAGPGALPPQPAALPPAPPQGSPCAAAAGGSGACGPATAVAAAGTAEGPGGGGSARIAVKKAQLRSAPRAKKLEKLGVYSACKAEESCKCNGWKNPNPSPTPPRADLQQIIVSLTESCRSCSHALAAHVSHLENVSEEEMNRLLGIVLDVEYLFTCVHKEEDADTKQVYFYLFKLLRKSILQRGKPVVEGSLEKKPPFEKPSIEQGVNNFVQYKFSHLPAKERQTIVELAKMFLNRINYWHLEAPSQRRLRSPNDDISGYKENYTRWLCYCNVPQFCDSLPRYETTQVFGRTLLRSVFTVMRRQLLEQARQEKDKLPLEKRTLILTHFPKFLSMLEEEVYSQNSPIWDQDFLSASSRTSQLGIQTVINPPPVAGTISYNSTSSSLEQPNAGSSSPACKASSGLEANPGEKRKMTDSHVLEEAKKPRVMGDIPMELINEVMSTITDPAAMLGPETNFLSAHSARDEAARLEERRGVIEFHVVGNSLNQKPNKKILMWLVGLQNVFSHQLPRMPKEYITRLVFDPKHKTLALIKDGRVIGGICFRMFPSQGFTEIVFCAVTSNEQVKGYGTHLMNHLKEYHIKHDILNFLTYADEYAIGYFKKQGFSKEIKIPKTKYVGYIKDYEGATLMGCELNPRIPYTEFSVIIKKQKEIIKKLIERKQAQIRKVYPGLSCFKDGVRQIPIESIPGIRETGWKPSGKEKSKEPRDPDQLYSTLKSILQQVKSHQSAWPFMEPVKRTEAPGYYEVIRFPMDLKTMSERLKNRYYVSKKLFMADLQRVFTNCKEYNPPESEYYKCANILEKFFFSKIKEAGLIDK

in vitro [1] = test: in vitro; parameters: species or system CCD841, HEK293; conditions: human, hb2 cells, read-out: HB-2 Cells Viability (%)
in vitro [2] = test: in vitro; parameters: species or system HB2, HEK293; conditions: human, ccd841 cells
in vitro [3] = test: in vitro; parameters: species or system HB2, CCD841; conditions: human, hek293 cells

T1 sequence (P02769 whole entry, the tested form may be a part): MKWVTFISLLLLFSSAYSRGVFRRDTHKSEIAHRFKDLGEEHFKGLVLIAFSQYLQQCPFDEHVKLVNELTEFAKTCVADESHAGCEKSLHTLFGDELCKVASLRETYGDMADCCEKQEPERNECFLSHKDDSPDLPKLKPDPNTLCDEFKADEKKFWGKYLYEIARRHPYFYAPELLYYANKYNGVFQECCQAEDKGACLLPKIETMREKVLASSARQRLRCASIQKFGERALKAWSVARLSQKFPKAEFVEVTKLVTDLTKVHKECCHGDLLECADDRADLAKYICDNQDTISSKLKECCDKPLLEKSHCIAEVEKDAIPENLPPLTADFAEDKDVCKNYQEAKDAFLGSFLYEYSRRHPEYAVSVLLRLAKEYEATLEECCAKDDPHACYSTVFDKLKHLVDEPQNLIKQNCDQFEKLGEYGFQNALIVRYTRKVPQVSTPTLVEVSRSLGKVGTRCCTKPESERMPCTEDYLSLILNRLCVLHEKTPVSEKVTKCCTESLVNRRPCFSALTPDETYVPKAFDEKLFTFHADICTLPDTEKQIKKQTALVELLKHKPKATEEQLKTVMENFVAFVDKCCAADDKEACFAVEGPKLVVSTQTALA

SMILES	BSA (BSA)	NUDT7 (NUDT7)	OTUB2 (OTUB2 (OTUB2A))	PCAF (PCAF)	viability at 48 h, 10 µM (in vitro [1])	viability at 48 h, 10 µM (in vitro [2])	viability at 48 h, 10 µM (in vitro [3])
C=CC(=O)NC1(CO)Cc2ccccc2C1 [PCM-0102446]	0	0.38	0	0	101%	103%	88.4%
C=CC(=O)N1C(C)CNCC1C.O=C(O)C(F)(F)F (stereo not drawn) [PCM-0102447]	0	0	0	0	104%	109%	105%
C=CC(=O)NCC1=CCCOC1 [PCM-0102448]	0	0.05	0	0	102%	104%	79.4%
C=CC(=O)N1CCN(C(=O)OCC(C)C)CC1 [PCM-0102449]	0	0	0	0	103%	80.1%	76.6%
C=CC(=O)NC1(C2CC2)CCOCC1 [PCM-0102450]	0	0	0	0	96.2%	106%	111%
C=CC(=O)N1CCCN(C(=O)Oc2ccccc2)CC1 [PCM-0102451]	0	0	0	0	96.2%	105%	93.9%
N#Cc1c(NC(=O)CCl)sc2c1CCC2 [PCM-0102452]	0	0	0.07	0	87.2%	93.5%	96.6%
C=CC(=O)Nc1ccc(Cl)c(C#N)c1 [PCM-0102453]	0	0	0	0	85.7%	86.4%	59.5%
C=CC(=O)Nc1sc2c(c1C#N)CCCC2 [PCM-0102455]	0	1	0	0	64.1%	72.5%	81.4%
O=C(CCl)NCC(F)(F)F [PCM-0102456]	0	0	0	0	102%	99.4%	91.9%
C=CC(=O)N1CCC(S(=O)(=O)NC)C1 (stereo not drawn) [PCM-0102463]	0	0	0	0	97.2%	104%	99.6%
N#CC1(NC(=O)CCl)CCCCCC1 [PCM-0102465]	0	0	0	0	80.7%	72.3%	43.5%
N#CSc1ccc(NC(=O)CCl)c(Br)c1 [PCM-0102466]	0	0	0	0	23.2%	29.3%	48.4%

More lines, main results first:

BSA (BSA)	NUDT7 (NUDT7)	OTUB2 (OTUB2 (OTUB2A))	PCAF (PCAF)	SMILES	viability at 48 h, 10 µM (in vitro [1])	viability at 48 h, 10 µM (in vitro [2])	viability at 48 h, 10 µM (in vitro [3])
0	0	0.08	0	O=C(CCl)N1CCN(S(=O)(=O)c2ccccc2)CC1 [PCM-0102468]	12.6%	54.9%	15%
0	0	0.38	0	O=C(CCl)NNC(=O)c1cccc(Cl)c1 [PCM-0102470]	84.7%	81.3%	94.8%
0	0	0	0	CC(C)n1nccc1NC(=O)CCl.Cl [PCM-0102472]	92.7%	107%	101%
0	0.1	0	0	CC(c1ccccc1)N(C)C(=O)CCl (stereo not drawn) [PCM-0102478]	27.5%	60.7%	27.5%
0	0	0	0	C=CC(=O)NC1CCCN(c2cnn(C)c2)C1 (stereo not drawn) [PCM-0102480]	99.5%	96.4%	91.8%
0	0	0	0	C=CC(=O)NCC1CC12CCOCC2 (stereo not drawn) [PCM-0102481]	97%	110%	103%
0	0	0	0	C=CC(=O)NCc1ccon1 [PCM-0102482]	98.9%	92.9%	90.3%
0.12	0	0	0	C=CC(=O)N1CCCc2[nH]c3ccc(F)cc3c2C1 [PCM-0102485]	95.2%	106%	105%
0	0	0	0	C=CC(=O)NC1CCc2cnn(C(C)C)c2C1 (stereo not drawn) [PCM-0102487]	95.5%	120%	97.7%
0	0	0	0	C=CC(=O)N1CCCN(S(=O)(=O)c2cccc3cnccc23)CC1 [PCM-0102491]	99.3%	100%	99.9%
0	0	0	0	C=CC(=O)Nc1ccccc1OC [PCM-0102493]	98.2%	105%	74.7%
